The values that follow come from patent US9499550B2 (BRISTOL-MYERS SQUIBB COMPANY, priority 2012, dated 2016).

Assay [1] concerns HCV genotype 1b (Con1) replicon in HUH-7 cells. The assay can be described thus: HCV replicon luciferase reporter assay, genotype 1b. The settings on record: Hepatitis C virus, Huh-7, 72 h, HCV genotype 1b replicon luciferase, 3 days incubation, read-out: LE_1b (EC50, range). The format is cell-based. The method, boiled down:
(§1)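 Replicon inhibition for both genotypes was measured as Renilla luciferase signal (EnduRen, 7.5 μM final, 2 h) after 3-day, 37° C exposure of replicon-bearing HUH-7 cells in 4% FCS DMEM, 0.5% DMSO. The 1b construct carries S1179I; the 1a H77 construct carries P1496L and S2204I. Twenty-point, 3-fold dilutions were fitted four-parametrically for EC50, and CC50 was taken from multiplexed Cell Titer-Blue.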

In assay [2] the test system is HCV genotype 1a (H77 strain) replicon in HUH-7 cells. Put plainly: HCV replicon luciferase reporter assay, genotype 1a. It counts as cell-based. Conditions: Hepatitis C virus, Huh-7, 72 h, HCV genotype 1a replicon luciferase, 3 days incubation, read-out: LE_1a (EC50, range). Summed up: as §1
For orientation: A replicon is a self-replicating genome or part of one, used to study replication in cells.

What is called EC50 is the concentration at which the effect is half-maximal. Turning to `COc1cc2ccnc(O[C@@H]3C[C@H]4C(=O)N[C@]5(C(=O)NS(=O)(=O)C6(F)CC6)C[C@H]5/C=C\CC[C@@H](C)C[C@@H](C)[C@H](NC(=O)OC(C)(C)C)C(=O)N4C3)c2cc1F` [Compound 4049, tert-butyl (2R,6S,7R,9R,13aS,14aR,16aS,Z)-2-(7-fluoro-6-methoxyisoquinolin-1-yloxy)-14a-(1-fluorocyclopropylsulfonylcarbamoyl)-7,9-dimethyl-5,16-dioxo-1,2,3,5,6,7,8,9,10,11,13a,14,14a,15,16,16a-hexadecahydrocyclopropa[e]pyrrolo[1,2-a][1,4]diazacyclopentadecin-6-ylcarbamate], the 50% effective concentration (EC50) in assay [1] and in assay [2] was less than 5.46 nM in each case.

For the molecule `COc1cc2ccnc(O[C@@H]3C[C@H]4C(=O)N[C@]5(C(=O)NS(=O)(=O)C6(F)CC6)C[C@H]5/C=C\CC[C@@H](C)C[C@@H](C)[C@H](NC(=O)OCC5(C)CC5)C(=O)N4C3)c2cc1F` [Compound 4050, (1-methylcyclopropyl)methyl (2R,6S,7R,9R,13aS,14aR,16aS,Z)-2-(7-fluoro-6-methoxyisoquinolin-1-yloxy)-14a-(1-fluorocyclopropylsulfonylcarbamoyl)-7,9-dimethyl-5,16-dioxo-1,2,3,5,6,7,8,9,10,11,13a,14,14a,15,16,16a-hexadecahydrocyclopropa[e]pyrrolo[1,2-a][1,4]diazacyclopentadecin-6-ylcarbamate], the EC50 in assay [1] and in assay [2] was less than 5.46 nM each time.

In the case of `COc1cc2ccnc(O[C@@H]3C[C@H]4C(=O)N[C@]5(C(=O)NS(=O)(=O)C6(F)CC6)C[C@H]5/C=C\CC[C@@H](C)C[C@@H](C)[C@H](NC(=O)OCC(C)(C)C)C(=O)N4C3)c2cc1F` [Compound 4051, neopentyl (2R,6S,7R,9R,13aS,14aR,16aS,Z)-2-(7-fluoro-6-methoxyisoquinolin-1-yloxy)-14a-(1-fluorocyclopropylsulfonylcarbamoyl)-7,9-dimethyl-5,16-dioxo-1,2,3,5,6,7,8,9,10,11,13a,14,14a,15,16,16a-hexadecahydrocyclopropa[e]pyrrolo[1,2-a][1,4]diazacyclopentadecin-6-ylcarbamate], the EC50 in assay [1] and in assay [2] was less than 5.46 nM throughout.

Consider `COc1cnc(O[C@@H]2C[C@H]3C(=O)N[C@]4(C(=O)NS(=O)(=O)C5(C)CC5)C[C@H]4/C=C\CC[C@@H](C)C[C@@H](C)[C@H](NC(=O)OC(C)(C)C(F)(F)F)C(=O)N3C2)c2ccccc12` [Compound 4052], for which the EC50 in assay [1] and in assay [2] was less than 5.46 nM throughout.

Take `CCOc1cnc(O[C@@H]2C[C@H]3C(=O)N[C@]4(C(=O)NS(=O)(=O)C5(F)CC5)C[C@H]4/C=C\CC[C@@H](C)C[C@@H](C)[C@H](NC(=O)OC(C)(C)C)C(=O)N3C2)c2ccccc12` [Compound 4053, tert-butyl (2R,6S,7R,9R,13aS,14aR,16aS,Z)-2-(4-ethoxyisoquinolin-1-yloxy)-14a-(1-fluorocyclopropylsulfonylcarbamoyl)-7,9-dimethyl-5,16-dioxo-1,2,3,5,6,7,8,9,10,11,13a,14,14a,15,16,16a-hexadecahydrocyclopropa[e]pyrrolo[1,2-a][1,4]diazacyclopentadecin-6-ylcarbamate]: the EC50 in assay [1] and in assay [2] was less than 5.46 nM in each case.

With `COc1ccc2c(O[C@@H]3C[C@H]4C(=O)N[C@]5(C(=O)NS(=O)(=O)C6CC6)C[C@H]5/C=C\CC[C@@H](C)C[C@@H](C)[C@H](NC(=O)OC5(C)CC5)C(=O)N4C3)nccc2c1` [Compound 4054], the EC50 in assay [1] and in assay [2] was less than 5.46 nM each time.
